Reference: the supplement of paper PMC11451515

Tested on: SEM cells
Assay: cell viability relative to DMSO control; higher = less cytotoxic
Conditions: 48 h
In short: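 Cells were incubated for 48 h at 37°C before CellTiter-Glo One luminescence was read. The cells were NOMO1 or SEM (500 cells/well) or P12-Ichikawa (1000 cells/well) leukemia cells, adapted for at least four passages in each medium and seeded in 1536-well plates (5 μl). Dosing used library compounds in DMSO applied by pin over 11 threefold points, 47 μM to 0.79 nM. Viability is the per-plate percentage of DMSO wells, with cell-free wells as background.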

[1] = HPLM + 10% dialyzed FBS, 0.000781 µM
[2] = HPLM + 10% dialyzed FBS, 0.00234 µM
[3] = HPLM + 10% dialyzed FBS, 0.00702 µM
[4] = HPLM + 10% dialyzed FBS, 0.0211 µM
[5] = HPLM + 10% dialyzed FBS, 0.0632 µM
[6] = HPLM + 10% dialyzed FBS, 0.19 µM
[7] = HPLM + 10% dialyzed FBS, 0.569 µM
[8] = HPLM + 10% dialyzed FBS, 1.71 µM
[9] = HPLM + 10% dialyzed FBS, 5.12 µM
[10] = HPLM + 10% dialyzed FBS, 15.4 µM
[11] = HPLM + 10% dialyzed FBS, 46.1 µM
[12] = RPMI 5 mM glucose + 10% FBS, 0.000781 µM
[13] = RPMI 5 mM glucose + 10% FBS, 0.00234 µM
[14] = RPMI 5 mM glucose + 10% FBS, 0.00702 µM
[15] = RPMI 5 mM glucose + 10% FBS, 0.0211 µM
[16] = RPMI 5 mM glucose + 10% FBS, 0.0632 µM
[17] = RPMI 5 mM glucose + 10% FBS, 0.19 µM
[18] = RPMI 5 mM glucose + 10% FBS, 0.569 µM
[19] = RPMI 5 mM glucose + 10% FBS, 1.71 µM
[20] = RPMI 5 mM glucose + 10% FBS, 5.12 µM
[21] = RPMI 5 mM glucose + 10% FBS, 15.4 µM
[22] = RPMI 5 mM glucose + 10% FBS, 46.1 µM
[23] = RPMI 5 mM glucose + 10% dialyzed FBS, 0.000781 µM
[24] = RPMI 5 mM glucose + 10% dialyzed FBS, 0.00234 µM
[25] = RPMI 5 mM glucose + 10% dialyzed FBS, 0.00702 µM
[26] = RPMI 5 mM glucose + 10% dialyzed FBS, 0.0211 µM
[27] = RPMI 5 mM glucose + 10% dialyzed FBS, 0.0632 µM
[28] = RPMI 5 mM glucose + 10% dialyzed FBS, 0.19 µM
[29] = RPMI 5 mM glucose + 10% dialyzed FBS, 0.569 µM
[30] = RPMI 5 mM glucose + 10% dialyzed FBS, 1.71 µM
[31] = RPMI 5 mM glucose + 10% dialyzed FBS, 5.12 µM
[32] = RPMI 5 mM glucose + 10% dialyzed FBS, 15.4 µM
[33] = RPMI 5 mM glucose + 10% dialyzed FBS, 46.1 µM

Compound	cell viability [1]	cell viability [2]	cell viability [3]	cell viability [4]	cell viability [5]	cell viability [6]	cell viability [7]	cell viability [8]	cell viability [9]	cell viability [10]	cell viability [11]	cell viability [12]	cell viability [13]	cell viability [14]	cell viability [15]	cell viability [16]	cell viability [17]	cell viability [18]	cell viability [19]	cell viability [20]	cell viability [21]	cell viability [22]	cell viability [23]	cell viability [24]	cell viability [25]	cell viability [26]	cell viability [27]	cell viability [28]	cell viability [29]	cell viability [30]	cell viability [31]	cell viability [32]	cell viability [33]
O=P(O)(O)C(O)(Cn1ccnc1)P(=O)(O)O	73.9%	94%	19.2%	101%	106%	101%	107%	106%	104%	109%	99.1%	95.8%	102%	10.2%	110%	120%	116%	123%	110%	123%	120%	114%	100%	89.7%	22.5%	92.7%	114%	104%	102%	117%	120%	116%	121%
COc1ccc(C(=O)CC2(O)C(=O)Nc3c(Cl)ccc(Cl)c32)cc1 (stereo not given)	87%	108%	111%	110%	104%	109%	113%	107%	45.9%	20.5%	16.2%	75.7%	98.4%	99.7%	79.3%	94.1%	85.1%	81.2%	65.7%	41.4%	10.7%	9.15%	94.8%	101%	107%	88.9%	104%	107%	107%	90.3%	47.3%	20.4%	14.9%
CC[C@@H]([C@H](C)O)n1ncn(-c2ccc(N3CCN(c4ccc(OCC5CO[C@@](Cn6cncn6)(c6ccc(F)cc6F)C5)cc4)CC3)cc2)c1=O (stereo not given in full)	92.3%	110%	107%	107%	114%	100%	107%	100%	102%	59.1%	82.7%	96.7%	101%	109%	105%	105%	115%	93.8%	103%	86.9%	87.7%	78.2%	112%	111%	108%	124%	106%	105%	106%	115%	102%	90.7%	81.8%
Nc1c2c(nc3ccccc13)CCCC2	92.9%	104%	118%	109%	115%	118%	101%	25.6%	108%	108%	86.1%	121%	123%	122%	109%	111%	112%	97.3%	17.5%	100%	118%	80.5%	109%	131%	123%	104%	112%	123%	95.7%	24.7%	117%	104%	87.6%
COC(=O)c1ccc2c(c1)NC(=O)/C2=C(\Nc1ccc(N(C)C(=O)CN2CCN(C)CC2)cc1)c1ccccc1	76.7%	79.4%	60.3%	30.1%	48.9%	50.9%	46.4%	38.3%	37.9%	30.5%	23.8%	96.1%	92.7%	84.2%	31.7%	68%	60%	57.5%	43.8%	41.3%	36.7%	24.5%	82.9%	83.2%	60.1%	30.8%	49.2%	44.6%	38.7%	35.9%	30.2%	29.8%	25.4%
COc1cc2c(cc1OC)CN(CCc1ccc(NC(=O)c3cc(OC)c(OC)cc3NC(=O)c3cnc4ccccc4c3)cc1)CC2	116%	115%	116%	123%	111%	110%	123%	120%	101%	69%	79.6%												115%	123%	114%	108%	122%	123%	121%	132%	103%	59.9%	47.9%
O=C(CCCN1CCN(c2ccc(F)cc2)CC1)NC1c2ccccc2CSc2ccccc21 (stereo not given)	111%	135%	116%	126%	131%	121%	33.8%	126%	113%	118%	89.6%	128%	112%	115%	115%	120%	118%	51%	103%	101%	92%	49.9%	112%	122%	102%	104%	123%	112%	40.7%	113%	95.3%	81.2%	43.6%
CNC(=O)c1ccc(Nc2cc(Nc3ccccc3[S+](=O)([O-])C(C)C)c3cc[nH]c3n2)nc1	81.7%	76.4%	96.5%	90.7%	89.8%	98.3%	82.9%	38.2%	28.4%	24.3%	16.8%	93.5%	118%	106%	114%	104%	102%	101%	48.9%	20.8%	17.7%	6.52%	83.9%	99.4%	98.5%	94.7%	102%	97.6%	85%	27%	20.1%	17.4%	7.56%
CC[C@H]1OC(=O)[C@H](C)C(=O)[C@H](C)[C@@H](O[C@H]2O[C@H](C)C[C@H](N(C)C)[C@H]2O)[C@](C)(OC)C[C@@H](C)C(=O)[C@H](C)[C@H]2N(CCCCn3cnc(-c4cccnc4)c3)C(=O)O[C@]12C	99.7%	118%	136%	120%	135%	123%	105%	109%	107%	105%	85.2%	95.6%	110%	116%	117%	124%	114%	114%	97.8%	119%	102%	93.3%	110%	124%	121%	117%	135%	126%	99.3%	119%	104%	118%	86.1%
Nc1ccc([S+](=O)([O-])Nc2ccnn2-c2ccccc2)cc1	76.6%	89.9%	80.9%	97.8%	87.8%	98.8%	109%	95.5%	94.8%	93.8%	93%	89.4%	92.8%	105%	102%	88.8%	98.2%	114%	102%	89%	96.2%	116%	95.1%	89.5%	104%	86.2%	97.5%	88%	107%	94.8%	115%	106%	104%
CCc1ccc(/C=C2/SC(=S)NC2=O)cc1	65.6%	63.5%	87.9%	76.4%	66.2%	64.8%	77.2%	64.8%	80.9%	27.6%	34.5%	78%	89.9%	94%	106%	97%	77.9%	80%	87.2%	74.6%	40.1%	45.4%	79.3%	62.7%	74%	74.2%	69.9%	61%	66.4%	57.3%	58.6%	20.5%	27%
O=C(c1ccccc1)c1ccc2n1CCC2C(=O)O (stereo not given)	117%	118%	104%	107%	114%	113%	112%	113%	81.9%	67.8%	77.6%												124%	121%	129%	134%	125%	121%	118%	114%	90.3%	59.4%	72.2%
CC(C)c1cc(C(C)C)c(CC(=O)N[S+](=O)([O-])Oc2c(C(C)C)cccc2C(C)C)c(C(C)C)c1	93.7%	108%	107%	96.2%	100%	106%	108%	102%	99.7%	99%	95.1%	114%	119%	114%	121%	114%	121%	116%	115%	130%	122%	115%	90.5%	104%	103%	104%	108%	104%	103%	97.3%	96.8%	88.6%	93.3%
CNc1nc(Nc2cnn([C@H]3CCN(C4COC4)C[C@@H]3F)c2Cl)ncc1C(F)(F)F	96%	89.1%	97.7%	103%	109%	105%	112%	93.1%	37.7%	20.9%	26.5%	103%	123%	108%	112%	85.3%	55.7%	65.5%	20.1%	18.9%	16.1%	17.6%	101%	106%	112%	116%	126%	106%	106%	73.6%	32%	17.6%	17.1%
